In one series the test system is HCMV AD169 RV-HG. Description: HCMV fluorescence-reduction test (GFP-RA) in NHDF cells. It is filed as cell-based, human cytomegalovirus. To be noted: read-out: EC50 (GFP-RA). The protocol:
The in vitro effects of the compositions according to the present invention on the replication of the HCMV (human cytomegalovirus) can be seen in the following antiviral assay:
HCMV Fluorescence-Reduction Test.
The test compositions are used as a 50-millimolar (mM) solution in dimethyl sulphoxide (DMSO). Ganciclovir®, Foscarnet® or Cidofovir® can be used as reference compositions. One day before the beginning of the test, 1.5×10^4 human foreskin fibroblasts (NHDF cells)/well are seeded in 200 μl of cell culture medium in Wells B2-G11 of 96-well plates (black with transparent floor). The wells along the edges of each 96-well plate are filled with 200 μl of medium only in order to prevent edge effects. On the day of the test the cell culture medium in Wells B2-G11 of each 96-well plate is vacuumed off by a suction device and replaced with 100 μl of virus suspension (multiplicity of infection (MOI): 0.1-0.2). The virus used is a recombinant HCMV which has integrated an expression cassette for green fluorescence protein (GFP) in the virus genome (HCMV AD 169 RV-HG [E. M. Borst, K. Wagner, A. Binz, B. Sodeik, and M. Messerle, 2008, J. Virol. 82:2065-2078.]). After an incubation time of 2 h at 37° C. and 5% CO2, the virus inoculate is vacuumed off by a suction device and all wells, with the exception of the wells in Column 3, are filled with 200 μl of cell culture medium. Column 2 is not treated further and serves as a virus control. The wells in Column 3 are each filled with 300 μl of test substance (diluted in cell culture medium) for duplicate analysis. The concentration of the respective antiviral substance in Column 3 is ˜27 times as concentrated as the respective anticipated EC50 value. […] The GFP intensity of each well in a 96-well plate is then determined using a fluorescence scanner (FluoBox; Bayer Technology Services GmbH; filter settings: GFP, […], Em 520 nm). The measured values thus obtained can be used to determine the EC50 of an anti-HCMV: […]

The nature of series [1]: Solubility measurement of saturated solution in phosphate buffer (HPLC). Format: physicochemical. As to the method: In order to determine the solubility, a saturated solution of the salt from Example 2 was prepared in phosphate buffer at pH 7.0 and shaken at room temperature for 2 hours. The suspensions obtained were filtered by means of a syringe filter (0.45 μm pore diameter) and after being diluted the clear solutions were measured by HPLC. Pure phosphate buffer was used as the blank sample. The solubility was calculated in terms of the absorption of a reference solution of the amorphous zwitterion in phosphate buffer.

The mark [2] stands for this setting: Human betaherpesvirus 5, AD169, NHDF, 168 h.

Three compounds from patent publication US9637459B2, “Sodium and calcium salts of dihydroquinazoline derivative and use thereof as antiviral agents” (AiCuris GmbH & Co. KG, priority 2012, dated 2017) can be followed below.

As a reminder, the EC50 is the concentration giving half of the maximal effect. Broadly, the solubility is the dissolved amount per volume that the medium holds.

Molecules are shown by their SMILES. In brackets after ≈: the same amount, converted by molar mass. Where two headings read alike, the source gives them in different places.

For the compound `COc1cccc(N2CCN(C3=Nc4c(F)cccc4[C@H](CC(=O)[O-])N3c3cc(C(F)(F)F)ccc3OC)CC2)c1.O.O.O.[Na+]` [Example 2, 3-hydrate of the monosodium salt of (S)-{8-fluoro-2-[4-(3-methoxyphenyl)piperazine-1-yl]-3-[2-methoxy-5-(trifluoromethyl)phenyl]-3,4-dihydroquinazoline-4-yl}acetic acid], the EC50 in the series with HCMV AD169 RV-HG (virus strain AD169 RV-HG, human foreskin fibroblasts (NHDF cells), 7 days incubation, 50% reduction of GFP fluorescence) was determined as 3.9 nM. Moreover, the Solubility in buffer in series [1] (pH 7) was over 91.7 mg/mL.

Regarding `COc1cccc(N2CCN(C3=Nc4c(F)cccc4[C@H](CC(=O)O)N3c3cc(C(F)(F)F)ccc3OC)CC2)c1` [Example 6A, (S)-{8-fluoro-2-[4-(3-methoxyphenyl)piperazine-1-yl]-3-(2-methoxy-5-trifluoromethyl-phenyl)-3,4-dihydroquinazoline-4-yl}acetic acid], the EC50 in the series with HCMV AD169 RV-HG (setting [2]) was found to be 3.4 nM. In series [1] (aqueous buffer, thermodynamic from solid, phosphate buffer pH 7.0, room temperature, shaken 2 hours, filtered 0.45 μm, HPLC), this compound gave a solubility at 2 h of 400 µg/mL (≈ 699 µM).

In the case of `Nc1nc(O)c2ncn(COC(CO)CO)c2n1` [Ganciclovir, reference compound], in the series on HCMV AD169 RV-HG (setting [2]), the EC50 amounted to 2200 nM.
